Assay results as given in US7687055B2, “Method of treating keratinic fibers with creatine, creatinine and/or their salts to strengthen, restructure, harden and stabilize them” (Wella AG, priority 2001, dated 2010).

Columns and labels:
[1] = Measurement of the improvement in combability: combing force on hair strands; conditions: 1 wt. % creatine in shampoo of Example 2 vs same shampoo without creatine (1.43 N to 1.21 N); t-test significance level 97.5%
Description: Measurement of the Improvement in Combability The combability of hair is also an important parameter for describing hair quality. Various external influences such as certain cosmetic treatments (bleaching, dyeing permanent waving), weathering and frequent combing and brushing cause a deterioration in hair combability which is attributable to damage to the cuticula. The principle of most methods for measuring combability consists of measuring the force (combing force) required to move a comb through a hair strand under exactly defined boundary conditions. Within the framework of our own study, an automated apparatus was used for this purpose. […] The strands were then repeatedly and automatically combed one after another at a constant rate of speed, and for each combing the combing force N (newton) was recorded as a function of the combing path (strand length). The reported combing force values were finally obtained by averaging the combing forces over the combing path. The lower the combing force, the better is the combability of the hair.

[2] = Measurement of the repair effect: tensile elongation measurement, strand tensile strength of hair; conditions: 1 wt. % creatine in shampoo of Example 2 vs same shampoo without creatine (14.8 to 15.5 cN/tex); t-test significance level 99.9%
Experimental: Measurement of the Repair Effect
To determine the breaking force for hair, which is an indicator of the structural integrity of the hair cortex and is thus a measure of the degree of damage, common tensile elongation measurements were performed. From each hair strand, 20 individual hairs were selected and the individual hair diameters were measured with a computer-controlled laser micrometer. The force required to break the individual hairs was then determined with a tensile elongation tester (MTT 160/160 Series Miniature Tensile Tester, serial No. 600.95.05.001, DIA-STRON Ltd, England).
From these individual test results, which because of the differing hair diameters are different, the strand tensile strength (STS) was determined by calculating from the individual values the tensile strength for a hair diameter of 0.08 mm (mean diameter) taking into account the hair diameters. By taking into account the hair density, a conversion to the unit for strand tensile strength (cN/tex) was finally made. The higher the numerical value of the strand tensile strength, the lower is the hair damage.

## CN(CC(=O)O)C(=N)N [creatine, M-amidinosarcosine]
[1]
  reduction of combing force (wet combability): 15.3%
[2]
  increase of strand tensile strength: 4.7%
